Reference: patent publication US20020169101A1, “Treatment of sexual dysfunction” (priority 1999, published 2002)

target: T1, human NMB receptor (BB1) (Homo sapiens, UniProt P28336); test: BB1 binding assay ([125I][Tyr4]bombesin displacement, CHO-K1 membranes); details: not given
T1 construct: expressed in transfected cells; membranes prepared from the cells
Method: In the following experiments, measurement of BB1 and BB2 binding was as follows. CHO-K1 cells stably expressing cloned human NMB (for (BB1 assay) and GRP receptors (for BB2 assay) were routinely grown in Ham's F12 culture medium supplemented with 10% foetal calf serum and 2 mM glutamine. For binding experiments, cells were harvested by trypsinization, and stored frozen at −70° C. in Ham's F12 culture medium containing 5% DMSO until required. On the day of use, cells were thawed rapidly, diluted with an excess of culture medium, and centrifuged for 5 minutes at 2000 g. Cells were resuspended in 50 mM Tris-HCl assay buffer (pH 7.4 at 21° C., containing 0.02% BSA, 40 μg/mL bacitracin, 2 μg/mL chymostatin, 4 μg/mL leupeptin, and 2 μM phosphoramidon), counted, and polytronned (setting 5, 10 sec) before centrifuging for 10 minutes at 28,000 g. The final pellet was resuspended in assay buffer to a final cell concentration of 1.5×10^5/mL. For binding assays, […] aliquots of membranes were incubated with [^125I][Tyr^4]bombesin (<0.1 nM) in the presence and absence of test compounds (final assay volume 250 μL) for 60 minutes and 90 minutes for NMB and GRP receptors, respectively. Nonspecific binding was defined by 1 μM bombesin. Assays were terminated by rapid filtration under vacuum onto Whatman GF/C filters presoaked in 0.2% PEI for >2 hours, and washed 50 mM Tris-HCl (pH 6.9 at 21° C.; 6×1 mL). Radioactivity bound was determined using a gamma counter.
All competition data was analysed using nonlinear regression utilizing iterative curve-plotting procedures in Prism® (GraphPad Software Inc., San Diego, USA). IC50 values were corrected to Ki values using the Cheng-Prusoff equation (Cheng Y., Prusoff W. H., Biochem. Pharmacol. 22: 3099-3108, 1973). obtained are listed in Table 1.

T1 sequence (P28336 whole entry): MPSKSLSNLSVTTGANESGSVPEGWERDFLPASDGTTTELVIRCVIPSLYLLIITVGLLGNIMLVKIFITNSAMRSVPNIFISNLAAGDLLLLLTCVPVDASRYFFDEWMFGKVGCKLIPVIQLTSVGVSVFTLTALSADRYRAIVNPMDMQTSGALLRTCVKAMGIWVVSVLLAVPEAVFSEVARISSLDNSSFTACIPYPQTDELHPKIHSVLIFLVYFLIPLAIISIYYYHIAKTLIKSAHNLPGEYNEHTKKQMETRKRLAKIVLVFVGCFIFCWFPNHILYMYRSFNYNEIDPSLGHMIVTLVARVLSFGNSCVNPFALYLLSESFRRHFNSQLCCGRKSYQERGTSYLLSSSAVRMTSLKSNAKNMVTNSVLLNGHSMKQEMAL

Compound	IC50
C[C@@](Cc1c[nH]c2ccccc12)(NS(=O)(=O)c1cc([N+](=O)[O-])ccc1Cl)C(=O)NCC1(c2ccccn2)CCCCC1 [Example 147]	374 nM
C[C@@](Cc1c[nH]c2ccccc12)(NS(=O)(=O)c1ccc(S(C)(=O)=O)cc1)C(=O)NCC1(c2ccccn2)CCCCC1 [Example 163]	1040 nM
C[C@@](Cc1c[nH]c2ccccc12)(NS(=O)(=O)c1c(Cl)cc(Cl)cc1Cl)C(=O)NCC1(c2ccccn2)CCCCC1 [Example 148]	215 nM
CN(C)c1cccc2c(S(=O)(=O)N[C@@](C)(Cc3c[nH]c4ccccc34)C(=O)NCC3(c4ccccn4)CCCCC3)cccc12 [Example 117]	1300 nM
C[C@@](Cc1c[nH]c2ccccc12)(NS(=O)(=O)c1cccc2nsnc12)C(=O)NCC1(c2ccccn2)CCCCC1 [Example 137]	256 nM
C[C@@](Cc1c[nH]c2ccccc12)(NS(=O)(=O)Cc1ccccc1[N+](=O)[O-])C(=O)NCC1(c2ccccn2)CCCCC1 [Example 142]	430 nM
Cc1cc(S(=O)(=O)N[C@@](C)(Cc2c[nH]c3ccccc23)C(=O)NCC2(c3ccccn3)CCCCC2)c(Cl)cc1Cl [Example 165]	172 nM
C[C@@](Cc1c[nH]c2ccccc12)(NS(=O)(=O)c1ccc([N+](=O)[O-])cc1[N+](=O)[O-])C(=O)NCC1(c2ccccn2)CCCCC1 [Example 162]	475 nM
C[C@@](Cc1c[nH]c2ccccc12)(NS(=O)(=O)c1cnc(Cl)c(Br)c1)C(=O)NCC1(c2ccccn2)CCCCC1 [Example 161]	187 nM
C[C@@](Cc1c[nH]c2ccccc12)(NS(=O)(=O)c1ccc(C(F)(F)F)cc1)C(=O)NCC1(c2ccccn2)CCCCC1 [Example 127]	553 nM
Cn1cnc(S(=O)(=O)N[C@@](C)(Cc2c[nH]c3ccccc23)C(=O)NCC2(c3ccccn3)CCCCC2)c1 [Example 138]	3670 nM
COc1cc(C)ccc1S(=O)(=O)N[C@@](C)(Cc1c[nH]c2ccccc12)C(=O)NCC1(c2ccccn2)CCCCC1 [Example 159]	445 nM
C[C@@](Cc1c[nH]c2ccccc12)(NS(=O)(=O)c1ccc(Cl)cc1[N+](=O)[O-])C(=O)NCC1(c2ccccn2)CCCCC1 [Example 149]	513 nM
C[C@@](Cc1c[nH]c2ccccc12)(NS(=O)(=O)c1ccc([N+](=O)[O-])cc1)C(=O)NCC1(c2ccccn2)CCCCC1 [Example 123]	515 nM
C[C@@](Cc1c[nH]c2ccccc12)(NS(=O)(=O)c1cccs1)C(=O)NCC1(c2ccccn2)CCCCC1 [Example 119]	232 nM
C[C@@](Cc1c[nH]c2ccccc12)(NS(=O)(=O)c1cccc(C#N)c1)C(=O)NCC1(c2ccccn2)CCCCC1 [Example 143]	460 nM
C[C@@](Cc1c[nH]c2ccccc12)(NS(=O)(=O)c1ccc(OC(F)(F)F)cc1)C(=O)NCC1(c2ccccn2)CCCCC1 [Example 151]	635 nM
C[C@@](Cc1c[nH]c2ccccc12)(NS(=O)(=O)c1ccc(Cl)c(C(F)(F)F)c1)C(=O)NCC1(c2ccccn2)CCCCC1 [Example 166]	627 nM
COc1ccc(S(=O)(=O)N[C@@](C)(Cc2c[nH]c3ccccc23)C(=O)NCC2(c3ccccn3)CCCCC2)cc1OC [Example 132]	608 nM
Cc1nn(C)c(Cl)c1S(=O)(=O)N[C@@](C)(Cc1c[nH]c2ccccc12)C(=O)NCC1(c2ccccn2)CCCCC1 [Example 135]	1250 nM
Cc1noc(C)c1S(=O)(=O)N[C@@](C)(Cc1c[nH]c2ccccc12)C(=O)NCC1(c2ccccn2)CCCCC1 [Example 136]	515 nM
C[C@@](Cc1c[nH]c2ccccc12)(NS(=O)(=O)c1ccccc1C(F)(F)F)C(=O)NCC1(c2ccccn2)CCCCC1 [Example 129, (S)-3-(1H-indol-3-yl)-2-methyl-N-(1-pyridin-2-yl-cyclohexylmethyl)-2-(2-trifluoromethyl-benzenesulfonylamino)-propionamide]	134 nM
Cc1nc(S(=O)(=O)N[C@@](C)(Cc2c[nH]c3ccccc23)C(=O)NCC2(c3ccccn3)CCCCC2)cn1C [Example 144]	2480 nM
C[C@@](Cc1c[nH]c2ccccc12)(NS(=O)(=O)c1ccc(C#N)cc1)C(=O)NCC1(c2ccccn2)CCCCC1 [Example 133]	766 nM

Other lines, results leading:

IC50	Compound
557 nM	Cc1ccc(S(=O)(=O)N[C@@](C)(Cc2c[nH]c3ccccc23)C(=O)NCC2(c3ccccn3)CCCCC2)cc1 [Example 112]
177 nM	C[C@@](Cc1c[nH]c2ccccc12)(NS(=O)(=O)c1cccc2cccc([N+](=O)[O-])c12)C(=O)NCC1(c2ccccn2)CCCCC1 [Example 146]
267 nM	C[C@@](Cc1c[nH]c2ccccc12)(NS(=O)(=O)c1ccccc1F)C(=O)NCC1(c2ccccn2)CCCCC1 [Example 114]
408 nM	C[C@@](Cc1c[nH]c2ccccc12)(NS(=O)(=O)c1ccccc1C#N)C(=O)NCC1(c2ccccn2)CCCCC1 [Example 134]
507 nM	C[C@@](Cc1c[nH]c2ccccc12)(NS(=O)(=O)c1cccc2nonc12)C(=O)NCC1(c2ccccn2)CCCCC1 [Example 139]
344 nM	C[C@@](Cc1c[nH]c2ccccc12)(NS(=O)(=O)c1ccc(-c2ccccn2)s1)C(=O)NCC1(c2ccccn2)CCCCC1 [Example 160]
242 nM	COC(=O)c1ccccc1S(=O)(=O)N[C@@](C)(Cc1c[nH]c2ccccc12)C(=O)NCC1(c2ccccn2)CCCCC1 [Example 155]
297 nM	C[C@@](Cc1c[nH]c2ccccc12)(NS(=O)(=O)c1ccc(S(=O)(=O)c2ccccc2)s1)C(=O)NCC1(c2ccccn2)CCCCC1 [Example 150]

same assay, conditions: Table 1, human NMB receptor binding affinity; Ki from IC50 by Cheng-Prusoff; read-out: NMB Ki

Ki	Compound
2400 nM	C[C@@](Cc1c[nH]c2ccccc12)(NCc1cc2ccccc2o1)C(=O)NCC1(c2ccccn2)CCCCC1 [Example 26]
3370 nM	C[C@@](Cc1c[nH]c2ccccc12)(Nc1cccc(-c2ccccc2)n1)C(=O)NCC1(c2ccccn2)CCCCC1 [Example 23, (S)-3-(1H-Indol-3-yl)-2-methyl-2-(6-phenyl-pyridin-2-ylamino)-N-(1-pyridin-2-yl-cyclohexylmethyl)-propionamide]
824 nM	C[C@@](Cc1c[nH]c2ccccc12)(Nc1ccccc1-c1ccccc1)C(=O)NCC1(c2ccccn2)CCCCC1 [Example 21, (S)-2-(Biphenyl-2-ylamino)-3-(1H-indol-3-yl)-2-methyl-N-(1-pyridin-2-yl-cyclohexylmethyl)-propionamide]

same assay, conditions: Table 3, N-acyl derivatives of Intermediate III-7

Compound	IC50
Cn1cccc1C(=O)N[C@@](C)(Cc1c[nH]c2ccccc12)C(=O)NCC1(c2ccccn2)CCCCC1 [Example 63, 1-Methyl-1H-pyrrole-2-carboxylic acid {(S)-2-(1H-indol-3-yl)-1-methyl-1-[(1-pyridin-2-yl-cyclohexylmethyl)-carbamoyl]-ethyl}-amide]	4820 nM
Cc1cc(C(=O)N[C@@](C)(Cc2c[nH]c3ccccc23)C(=O)NCC2(c3ccccn3)CCCCC2)no1 [Example 62]	4130 nM
C[C@@](Cc1c[nH]c2ccccc12)(NC(=O)c1ccc2[nH]nnc2c1)C(=O)NCC1(c2ccccn2)CCCCC1 [Example 73, 1H-Benzotriazole-5-carboxylic acid {(S)-2-(1H-indol-3-yl)-1-methyl-1-[(1-pyridin-2-yl-cyclohexylmethyl)-carbamoyl]-ethyl}-amide]	3170 nM
C[C@@](Cc1c[nH]c2ccccc12)(NC(=O)c1ccoc1)C(=O)NCC1(c2ccccn2)CCCCC1 [Example 59]	1200 nM

Second part, the molecule after the results:

IC50	Compound
1420 nM	C[C@@](Cc1c[nH]c2ccccc12)(NC(=O)c1cnc2ccccc2n1)C(=O)NCC1(c2ccccn2)CCCCC1 [Example 78, Quinoxaline-2-carboxyiic acid {(S)-2-(1H-indol-3-yl)-1-methyl-1-[(1-pyridin-2-yl-cyclohexylmethyl)-carbamoyl]-ethyl}-amide]
3710 nM	C[C@@](Cc1c[nH]c2ccccc12)(NC(=O)c1ccccn1)C(=O)NCC1(c2ccccn2)CCCCC1 [Example 57]
1360 nM	C[C@@](Cc1c[nH]c2ccccc12)(NC(=O)c1cc2ccccc2cn1)C(=O)NCC1(c2ccccn2)CCCCC1 [Example 77, Isoquinoline-3-carboxylic acid {(S)-2-(1H-indol-3-yl)-1-methyl-1-[(1-pyridin-2-yl-cyclohexylmethyl)-carbamoyl]-ethyl}-amide]

same assay, conditions: second 'TABLE 4', N-terminal urethane derivatives of Intermediate III-7

IC50	Compound
171 nM	C[C@@](Cc1c[nH]c2ccccc12)(NC(=O)OCc1ccc2ncccc2c1)C(=O)NCC1(c2ccccn2)CCCCC1 [Example 110, {(S)-2-(1H-Indol-3-y1)-1-methyl-1-[(1-pyridin-2-yl-cyclohexylmethyl)-carbamoyl]-ethyl}-carbamic acid quinolin-6-ylmethyl ester]
450 nM	C[C@@](Cc1c[nH]c2ccccc12)(NC(=O)OCc1ccc(Cl)cc1Cl)C(=O)NCC1(c2ccccn2)CCCCC1 [Example 104, {(S)-2-(1H-Indol-3-y1)-1-methyl-1-[(1-pyridin-2-yl-cyclohexylmethyl)-carbamoyl]-ethyl}-carbamic acid 2,4-dichloro-benzyl ester]
